Source: patent publication US20120121656A1, “METHODS AND COMPOSITIONS FOR PROTECTING AGAINST NEUROTOXICITY OF A NEUROTOXIC AGENT, AND IMPROVING MOTOR COORDINATION ASSOCIATED WITH A NEURODEGENERATIVE CONDITION OR DISEASE” (Revalesio Corporation, priority 2010, published 2012)

How the values were obtained:
[1] = Body weight of rats in the MBP EAE model; type: in vivo, Lewis rats; settings: Group 2F, 1 mg/kg IP once daily from study day 0
From the text: (§1) Body Weights. Body weight loss can be the first sign of disease initiation, while a sudden marked weight gain tends to accompany remission of EAE symptoms. Therefore, determination of individual body weights of animals was made shortly before EAE induction on study day 0 (study commencement) and thereafter on a daily basis throughout the entire 21-day observation period.
as §1, with “This working EXAMPLE discloses the weight change of rats subjected to the experiment described in Example 7.” for “Body Weights.”, “and” for “and thereafter”, “the” for “the entire”

[2] = target: T1, MMP-2 (Homo sapiens, UniProt P08253); settings: cited from earlier work
T1 sequence (P08253 110-660): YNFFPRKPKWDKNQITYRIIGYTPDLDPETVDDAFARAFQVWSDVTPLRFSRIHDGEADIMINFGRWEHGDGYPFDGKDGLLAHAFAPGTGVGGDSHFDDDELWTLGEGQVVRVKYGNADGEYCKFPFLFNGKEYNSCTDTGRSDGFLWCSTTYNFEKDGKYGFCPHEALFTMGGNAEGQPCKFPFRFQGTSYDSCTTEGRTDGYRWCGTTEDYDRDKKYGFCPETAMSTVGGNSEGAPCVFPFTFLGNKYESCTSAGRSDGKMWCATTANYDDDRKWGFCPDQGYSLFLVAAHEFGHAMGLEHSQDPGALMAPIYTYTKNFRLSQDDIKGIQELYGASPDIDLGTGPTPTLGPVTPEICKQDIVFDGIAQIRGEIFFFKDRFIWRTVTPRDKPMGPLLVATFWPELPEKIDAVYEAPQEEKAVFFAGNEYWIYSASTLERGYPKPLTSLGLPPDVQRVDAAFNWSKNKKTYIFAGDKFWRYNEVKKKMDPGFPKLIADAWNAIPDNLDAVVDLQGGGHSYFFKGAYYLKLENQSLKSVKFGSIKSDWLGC

[3] = target: MMP-9 (Homo sapiens, UniProt P14780); settings: cited from earlier work
[4] = system: primary progressive MS; settings: 943 patients with primary progressive MS (Wolinsky et al. 2007); cited from earlier work
[5] = system: MS; settings: in vivo; cited from earlier work

Chain of MMP-9 (P14780 94-707, species assumed): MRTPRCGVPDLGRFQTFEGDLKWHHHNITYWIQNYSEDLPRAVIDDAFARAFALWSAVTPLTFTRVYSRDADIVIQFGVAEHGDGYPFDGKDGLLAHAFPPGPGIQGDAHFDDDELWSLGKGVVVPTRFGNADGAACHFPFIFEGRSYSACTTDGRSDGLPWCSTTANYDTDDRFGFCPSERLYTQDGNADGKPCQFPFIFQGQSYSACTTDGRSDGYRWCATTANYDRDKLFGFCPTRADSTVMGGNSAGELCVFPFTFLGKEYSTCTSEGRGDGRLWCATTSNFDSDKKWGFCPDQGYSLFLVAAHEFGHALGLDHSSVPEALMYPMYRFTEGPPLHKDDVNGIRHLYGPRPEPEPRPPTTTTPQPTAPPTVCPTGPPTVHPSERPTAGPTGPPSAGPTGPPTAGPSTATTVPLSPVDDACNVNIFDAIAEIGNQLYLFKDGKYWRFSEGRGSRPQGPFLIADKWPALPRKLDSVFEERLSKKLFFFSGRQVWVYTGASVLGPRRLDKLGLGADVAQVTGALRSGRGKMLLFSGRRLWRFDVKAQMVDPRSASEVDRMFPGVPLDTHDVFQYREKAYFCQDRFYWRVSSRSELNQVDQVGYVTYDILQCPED

Molecule	binding and inhibition of MMP-2 [2]	binding and inhibition of MMP-9 [3]	also measured
C[C@@H]1C[C@H]2[C@@H]3CCC4=CC(=O)C=C[C@]4(C)[C@@]3(F)[C@@H](O)C[C@]2(C)[C@@]1(O)C(=O)CO [Dexamethasone]			mean body weight loss during the study [1]: 10%; mean body weight lost at study termination [1]: 2%
O=S(=O)(CCC(S)CS)c1ccc(Oc2ccccc2)cc1 (centres unmarked) [compound 1, 4-(4-phenoxyphenylsulfonyl)butane-1,2-dithiol]	bind selectively and inhibit potently	bind selectively and inhibit potently	
O=S(=O)(CCCC(S)CS)c1ccc(Oc2ccccc2)cc1 (centres unmarked) [compound 2, 5-(4-phenoxyphenylsulfonyl)pentane-1,2-dithiol]	bind selectively and inhibit potently	bind selectively and inhibit potently	
glatiramer acetate			progression of disability and the disease [4]: failed to halt the progression of disability and the disease
interferon-β			effectiveness in reducing the rate of MS episodes [5]: 18-38%
